What was measured:
KRas G12S = molecular target: T1, KRas G12S (Homo sapiens, UniProt P01116, G12S); test: KRas binding assay, TR-FRET displacement of Cy5 labelled tracer; conditions: 60-minute incubation at room temperature, 1% DMSO, pH 7.5
T1 construct: Biotinylated KRas (corresponding to amino acids 1-169, produced at Accelegan Inc.); biotin (biotinylated); purchased Accelegan Inc
How it was run: (§1)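 Compound competes with tracer for biotin-labelled KRas (amino acids 1-169) bound to terbium-streptavidin. Incubation runs 60 minutes at room temperature, final DMSO 1%. IC50 values derive from a 4-parameter fit.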

KRas G12C = molecular target: T2, KRas G12C (Homo sapiens, UniProt P01116, G12C); test: as above; conditions: 60-minute incubation at room temperature, 1% DMSO, pH 7.5
T2 construct: Biotinylated KRas (corresponding to amino acids 1-169, produced at Accelegan Inc.); biotin (biotinylated); purchased Accelegan Inc
T2 sequence (P01116 1-169 isoform P01116-2 G12C): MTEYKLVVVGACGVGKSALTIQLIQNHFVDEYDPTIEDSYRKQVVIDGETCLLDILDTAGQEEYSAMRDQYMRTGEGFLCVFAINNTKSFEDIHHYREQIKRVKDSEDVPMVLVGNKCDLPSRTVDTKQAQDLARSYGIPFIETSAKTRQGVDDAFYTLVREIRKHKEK
How it was run: as §1

KRas WT = molecular target: T3, KRas WT (Homo sapiens, UniProt P01116); test: as above; conditions: 60-minute incubation at room temperature, 1% DMSO, pH 7.5
T3 construct: Biotinylated KRas (corresponding to amino acids 1-169, produced at Accelegan Inc.); biotin (biotinylated); purchased Accelegan Inc
T3 sequence (P01116 1-169 isoform P01116-2): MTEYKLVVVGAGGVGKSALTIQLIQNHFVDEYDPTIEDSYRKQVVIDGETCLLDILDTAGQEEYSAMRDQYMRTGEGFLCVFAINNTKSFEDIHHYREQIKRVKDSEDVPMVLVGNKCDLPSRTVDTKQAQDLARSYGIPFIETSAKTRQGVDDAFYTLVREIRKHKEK
How it was run: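 KRas aa 1-169, biotinylated; Tb-streptavidin donor; 1% DMSO final. Buffer: HEPES 50 mM (pH 7.5), MgCl2 5 mM, DTT 1 mM, Tween-20 0.005%. 60 min, RT. IC50 from 4-parameter fit of POC.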

[1] = molecular target: T4, KRas-mediated phosphorylation of ERK in MKN1 cells (Homo sapiens, UniProt P01116); test: Inhibition of KRas-mediated phosphorylation of ERK (HTRF), MKN1 cells; assay type: cell-based; conditions: MKN1 cells (KRas WT); HTRF pERK; 3 h incubation
T4 construct: pERK HTRF read-out
T4 sequence (P01116 1-188 isoform P01116-2): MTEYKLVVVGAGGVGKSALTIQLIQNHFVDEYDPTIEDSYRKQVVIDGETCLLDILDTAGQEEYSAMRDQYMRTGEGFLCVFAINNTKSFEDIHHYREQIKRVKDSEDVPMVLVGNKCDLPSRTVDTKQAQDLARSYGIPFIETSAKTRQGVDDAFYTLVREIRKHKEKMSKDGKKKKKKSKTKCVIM
Procedure: Inhibition of KRas Phosphorylation of ERK (HTRF) by Exemplary Compounds of Formula (Ia) or (Ib)
Cisbio HTRF Advanced pERK Assay Catalog #64AERPEH • Cells: MKN1, PSN1 • Procedure: • 1. Day 1: Seed 6,000 cells/well −25 μl/well in 384-well white solid bottom plate; RPM1_10% FBS. Incubate overnight at 37 °C/5% CO2. • 2.

[2] = molecular target: T5, KRas-mediated phosphorylation of ERK in A549 cells (Homo sapiens, UniProt P01116, G12S); test: Inhibition of KRas-mediated phosphorylation of ERK (HTRF), A549 cells; assay type: cell-based; conditions: HTRF pERK, 3 h incubation
T5 construct: pERK HTRF read-out
T5 sequence (P01116 1-188 isoform P01116-2 G12S): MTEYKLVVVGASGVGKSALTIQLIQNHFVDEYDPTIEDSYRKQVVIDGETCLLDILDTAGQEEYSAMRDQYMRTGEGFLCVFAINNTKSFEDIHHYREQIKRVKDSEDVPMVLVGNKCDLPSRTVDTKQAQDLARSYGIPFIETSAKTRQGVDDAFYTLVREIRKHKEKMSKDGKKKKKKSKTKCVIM

[3] = molecular target: T6, KRas-mediated phosphorylation of ERK in H358 cells (Homo sapiens, UniProt P01116, G12C); test: Inhibition of KRas-mediated phosphorylation of ERK (HTRF), H358 cells; assay type: cell-based; conditions: HTRF pERK, 3 h incubation
T6 construct: pERK HTRF read-out
T6 sequence (P01116 1-188 isoform P01116-2 G12C): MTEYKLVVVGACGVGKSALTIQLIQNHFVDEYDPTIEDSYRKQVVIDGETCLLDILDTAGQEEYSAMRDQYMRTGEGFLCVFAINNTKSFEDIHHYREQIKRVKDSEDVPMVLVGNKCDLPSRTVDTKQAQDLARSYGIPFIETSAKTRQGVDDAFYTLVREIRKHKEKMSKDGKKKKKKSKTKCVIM

T1 sequence (P01116 1-169 isoform P01116-2 G12S): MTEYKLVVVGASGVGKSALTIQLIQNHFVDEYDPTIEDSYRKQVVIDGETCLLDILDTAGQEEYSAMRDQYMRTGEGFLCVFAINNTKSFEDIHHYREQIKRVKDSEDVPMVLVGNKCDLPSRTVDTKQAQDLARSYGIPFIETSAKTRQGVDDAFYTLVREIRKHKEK

SMILES	IC50 (KRas G12S) [nM]	IC50 (KRas G12C) [nM]	IC50 (KRas WT) [nM]	IC50 [1] [nM]	IC50 [2] [nM]	IC50 [3] [nM]
CCc1c(F)ccc2cc(O)cc(-c3ncc4c(N5C[C@@H]6C[C@H](C(=O)n7ccc(C)n7)[C@@H]6C5)nc(OC[C@@]56CCCN5C[C@H](F)C6)nc4c3F)c12 [Example 211, ((1R,5R,6S)-3-(7-(8-ethyl-7-fluoro-3-hydroxynaphthalen-1-yl)-8-fluoro-2-(((2R,7aS)-2-fluorotetrahydro-1H-pyrrolizin-7a(5H)-yl)methoxy)pyrido[4,3-d]pyrimidin-4-yl)-3-azabicyclo[3.2.0]heptan-6-yl)(3-methyl-1H-pyrazol-1-yl)methanone]	15	61	314	567	23	518
CCc1c(F)ccc2cc(O)cc(-c3ncc4c(N5CCN(C(=O)n6ccnc6)CC5)nc(OC[C@@]56CCCN5C[C@H](F)C6)nc4c3F)c12 [Example 150, (4-(7-(8-ethyl-7-fluoro-3-hydroxynaphthalen-1-yl)-8-fluoro-2-(((2R,7aS)-2-fluorotetrahydro-1H-pyrrolizin-7a(5H)-yl)methoxy)pyrido[4,3-d]pyrimidin-4-yl)piperazin-1-yl)(1H-imidazol-1-yl)methanone]	3	5	2	40	1580	39
CC(=O)N(C)C(=O)CCCN(C)c1cc(O[C@@H](C)[C@@H]2CCCN2C)nc(-c2cc([C@]3(C)CCCc4sc(N)c(C#N)c43)sn2)n1 [Example 319, N-acetyl-4-((2-(5-((R)-2-amino-3-cyano-4-methyl-4,5,6,7-tetrahydrobenzo[b]thiophen-4-yl)isothiazol-3-yl)-6-((S)-1-((S)-1-methylpyrrolidin-2-yl)ethoxy)pyrimidin-4-yl)(methyl)amino)-N-methylbutanamide]	> 100000	> 100000	> 100000	> 10000	> 10000	> 10000
COCc1ccn(C(=O)C2CCCN(c3nc(OC[C@@]45CCCN4C[C@H](F)C5)nc4c(F)c(-c5ccc(F)c6sc(N)c(C#N)c56)c(Cl)cc34)CC2)n1 (stereo partly drawn) [Example 190, 2-amino-4-(6-chloro-8-fluoro-2-(((2R,7aS)-2-fluorotetrahydro-1H-pyrrolizin-7a(5H)-yl)methoxy)-4-(4-(3-(methoxymethyl)-1H-pyrazole-1-carbonyl)azepan-1-yl)quinazolin-7-yl)-7-fluorobenzo[b]thiophene-3-carbonitrile]	4	5	13	205	7	7
CN(CCN(C)c1nc(OC[C@@]23CCCN2C[C@H](F)C3)nc2c(F)c(-c3ccc(F)c4sc(N)c(C#N)c34)c(Cl)cc12)C(=O)n1ccnn1 (single isomer, unassigned) [Example 203]	3	< 2	4	101	195	1
CN(C(=O)C1CCN(c2nc(OC[C@@]34CCCN3C[C@H](F)C4)nc3c(F)c(-c4ccc(F)c5sc(N)c(C#N)c45)c(Cl)cc23)CC1)c1ccncn1 [Example 290, 1-(7-(2-amino-3-cyano-7-fluorobenzo[b]thiophen-4-yl)-6-chloro-8-fluoro-2-(((2R,7aS)-2-fluorotetrahydro-1H-pyrrolizin-7a(5H)-yl)methoxy)quinazolin-4-yl)-N-methyl-N-(pyrimidin-4-yl)piperidine-4-carboxamide]	13	9	10	18	142	29
CCc1c(F)ccc2cc(O)cc(-c3ncc4c(N5CCN(C(=O)n6ccc(C)n6)C(CF)C5)nc(OC[C@@]56CCCN5C[C@H](F)C6)nc4c3F)c12 (stereo partly drawn) [Example 123, (4-(7-(8-ethyl-7-fluoro-3-hydroxynaphthalen-1-yl)-8-fluoro-2-(((2R,7aS)-2-fluorotetrahydro-1H-pyrrolizin-7a(5H)-yl)methoxy)pyrido[4,3-d]pyrimidin-4-yl)-2-(fluoromethyl)piperazin-1-yl)(3-methyl-1H-pyrazol-1-yl)methanone]	68	42	30	219	2740	264
Cc1ccn(C(=O)C2CCCN(c3nc(OC[C@@]45CCCN4C[C@H](F)C5)nc4c(F)c(-c5csc6ccc(N)nc56)c(Cl)cc34)CC2)n1 (stereo partly drawn) [Example 215, (1-(7-(5-aminothieno[3,2-b]pyridin-3-yl)-6-chloro-8-fluoro-2-(((2R,7aS)-2-fluorotetrahydro-1H-pyrrolizin-7a(5H)-yl)methoxy)quinazolin-4-yl)azepan-4-yl)(3-methyl-1H-pyrazol-1-yl)methanone]	169	2400	11400	3920	242	> 10000
CN(CCCC(=O)N(C)c1cccnc1)c1nc(OC[C@@]23CCCN2C[C@H](F)C3)nc2c(F)c(-c3ccc(F)c4sc(N)c(C#N)c34)c(Cl)cc12 [Example 266, 4-((7-(2-amino-3-cyano-7-fluorobenzo[b]thiophen-4-yl)-6-chloro-8-fluoro-2-(((2R,7aS)-2-fluorotetrahydro-1H-pyrrolizin-7a(5H)-yl)methoxy)quinazolin-4-yl)(methyl)amino)-N-methyl-N-(pyridin-3-yl) butanamide]	9	5	10	236	410	58
CCc1c(F)ccc2cc(O)cc(N3CCc4c(nc(OC[C@@]56CCCN5C[C@H](F)C6)nc4N4CCC(C(=O)n5ccc(C)n5)CC4)C3)c12 [Example 146, (1-(7-(8-ethyl-7-fluoro-3-hydroxynaphthalen-1-yl)-2-(((2R,7aS)-2-fluorotetrahydro-1H-pyrrolizin-7a(5H)-yl)methoxy)-5,6,7,8-tetrahydropyrido[3,4-d]pyrimidin-4-yl)piperidin-4-yl)(3-methyl-1H-pyrazol-1-yl)methanone]	477	676	412	2530	> 10000	3830
CCc1c(F)ccc2cc(O)cc(-c3ncc4c(N5CC[C@H](C(=O)n6ccc(C)n6)[C@H](C)C5)nc(OC[C@@]56CCCN5C[C@H](F)C6)nc4c3F)c12 [Example 85, ((3S,4S)-1-(7-(8-ethyl-7-fluoro-3-hydroxynaphthalen-1-yl)-8-fluoro-2-(((2R,7aS)-2-fluorotetrahydro-1H-pyrrolizin-7a(5H)-yl)methoxy)pyrido[4,3-d]pyrimidin-4-yl)-3-methylpiperidin-4-yl)(3-methyl-1H-pyrazol-1-yl)methanone]	17	28	8	48	883	458
CON(C(C)=O)C(=O)CCCN(C)c1nc(OC[C@@]23CCCN2C[C@H](F)C3)nc2c(F)c(-c3ccc(F)c4sc(N)c(C#N)c34)c(Cl)cc12 [Example 234, N-acetyl-4-((7-(2-amino-3-cyano-7-fluorobenzo[b]thiophen-4-yl)-6-chloro-8-fluoro-2-(((2R,7aS)-2-fluorotetrahydro-1H-pyrrolizin-7a(5H)-yl)methoxy)quinazolin-4-yl)(methyl)amino)-N-methoxybutanamide]	3	< 2	9	161	3	7
CC(=O)N(C)C(=O)CCCN(C)c1nc(OC[C@@]23CCCN2C[C@H](F)C3)nc2c(F)c(-c3ccc(F)c4sc(N)c(C#N)c34)c(Cl)cc12 [Example 259, N-acetyl-4-((7-(2-amino-3-cyano-7-fluorobenzo[b]thiophen-4-yl)-6-chloro-8-fluoro-2-(((2R,7aS)-2-fluorotetrahydro-1H-pyrrolizin-7a(5H)-yl)methoxy)quinazolin-4-yl)(methyl)amino)-N-methylbutanamide]	3	3	8	125	19	80
Cc1ccn(C(=O)CCNc2nc(OC[C@@]34CCCN3C[C@H](F)C4)nc3c(F)c(-c4ccc(F)c5sc(N)c(C#N)c45)c(Cl)cc23)n1 [Example 177, 2-amino-4-(6-chloro-8-fluoro-2-(((2R,7aS)-2-fluorotetrahydro-1H-pyrrolizin-7a(5H)-yl)methoxy)-4-((3-(3-methyl-1H-pyrazol-1-yl)-3-oxopropyl)amino)quinazolin-7-yl)-7-fluorobenzo[b]thiophene-3-carbonitrile]	4	2	9	1250	227	1110

Reference: patent US20260356856A1, “KRAS G12S AND G12C INHIBITORS” (MIRATI THERAPEUTICS, INC., priority 2023, published 2026)
